From patent US7390873B2, “Antimicrobial cationic peptides” (University of British Columbia, priority 1995, dated 2008)
Values after ≈ are worked out from the molar mass of the structure shown. Read-outs that look alike come from different tables or passages of the source. Where a SMILES comes first, the peptide text is derived from it. Where no end group is shown, it is not given here. [ ]: non-standard residue; d: D form.

Assays:
E. coli UB1005 = type: cell-based; details: UB1005, 24 h
Protocol: (§1) Any of the art-known methods for measuring antimicrobial activity of peptides can be used in characterizing the peptides of the invention. In these examples, conventional methods were used to determine the minimal inhibitory concentration (MIC) of a peptide in a liquid medium (Amsterdam. Antibiotics in Laboratory Medicine, Williams and Wilkins, Baltimore (1991) 72-78). Briefly, overnight cultures of the test organisms (described below) were diluted to produce an inoculum containing approximately 10^4 to 10^5 organisms. The inoculum size was confirmed by counting the number of organisms on plates that were inoculated at the same time as the liquid cultures.
(§2) The concentration of peptide was measured by assaying for free amino groups using a dinitrophenylation assay, with polymyxin B serving as a standard. Doubling dilutions of peptide were performed (32 μg/ml-0.25 μg/ml) in 100 μl volumes in a 96-well mictrotiter plate, and all wells were subsequently inoculated with the diluted culture of the test organism. After 24 hours of incubation at 37° C., the assay was read. The MIC value is the concentration of peptide at which the growth of the test organism was reduced by 50%. The number of cells in the culture inoculum was calculated from the plate count after incubating the plate for 24 hours at 37° C. The medium used for cell culture and dilution in this assay was Luria broth (LB). Each peptide was tested three times against each organism, and the MIC values presented below are the mean values of the three experiments.

[1] = test system: Pseudomonas aeruginosa K799; type: cell-based; details: K799, 24 h
Protocol: as §1, §2

[2] = test system: Staphylococcus aureus RN4220; type: cell-based; details: RN4220, 24 h
Protocol: as §1, §2

[3] = test system: Staphylococcus epidermidis C621; type: cell-based; details: C621, 24 h
Protocol: as §1, §2

Candida albicans C627 = type: cell-based; details: C627, 24 h
[4] = Mortality after injection of peptide in mice; type: in vivo; details: 200 μg peptide IP
Protocol: The ability of indolicidin and variants to protect against LPS-induced endotoxemia was assessed in vivo. Mice (8-10 weeks old) were injected intraperitoneally (IP) with 20 mg D-galactosamine (Dgal) to sensitive them to LPS according to the model of Galanos (Galanos, C., M. A., Freudenberg and W. Reutter, 1979, Galactosamine sensitization to the lethal effects of endotoxin. Proc. Natl. Acad. Sci. USA 76:5939), followed by 200 μg peptide in 100 μl. Immediately afterwards LPS (10 μg) in 100 μl was injected. The mice were observed 24 hours after injections and survivors noted. […] When Dgal and LPS were also injected, that 200 μg of indolicidin reduced mortality reduced at 24 hours from 100% in controls to 60%.

[5] = Dansyl polymyxin B (DPX) displacement assay; type: binding, P. aeruginosa; details: concentration at which 50% of the maximal DPX was displaced from the LPS; read-out: I50 of DPX displacement
Protocol: Peptides that bind lipopolysaccharide are thought to potentially function as anti-endotoxins. The binding of various CP peptides to P. aeruginosa H103 lipopolysaccharide (LPS) was measured in a dansyl polymyxin B (DPX) displacement assay as described by Moore et al. (AAC, 26 (1986) 496-500). […] Purified LPS was saturated with DPX by titrating LPS with samples of DPX until maximum fluorescence was reached. Fluorescence was measured in a Perkin-Elmer 650-10S fluorescence spectrophotometer and displacement of DPX was measured as a decrease in fluorescence upon the addition of an antimicrobial peptide.
Each peptides I50 value, which is the concentration at which 50% of the maximal DPX was displaced from the LPS, is shown. Also shown is the Imax value, which represents the maximum displacement of […] expressed as a percentage, where 100% indicates displacement of all bound DPX.

human red blood cells = assay: Lysis of red blood cells; type: cell-based
Protocol: Freshly collected human blood was mixed with heparin and centrifuged to remove the buffy coat. The resulting erythrocytes were washed three times in 0.85% saline and stored at 4° C. Serial dilutions of the peptides in saline were prepared in round bottomed microtitre plates using 100 μl volumes. Red blood cells were diluted with saline to 1/25 of the packed volume of cells and 50 μl of red blood cells were added to each well. Plates were incubated while rocking at 37° C., and the concentration of peptide required for red blood cell lysis of more than 80% of cells (i.e., visible lysis) was determined at 4 and 24 hours (Table 7).

[6] = test system: all of the organisms tested; assay: MIC assay, summary over the organisms tested; type: cell-based; details: range over organisms
Protocol: as §1
as §2, with “The medium used for cell culture and dilution in this assay was Luria broth (LB). Each peptide was tested three times against each organism, and the MIC values presented below are the mean values of the three experiments.” left out
MIC values also were determined for various derivatives of indolicidin, CP-11, and CP-13. […]

## CC[C@@H](C)[C@@H](N)C(=O)N[C@@H](CC(C)C)C(=O)N[C@@H](CCCCN)C(=O)N[C@@H](CCCCN)C(=O)N[C@@H](Cc1c[nH]c2ccccc12)C(=O)N1CCC[C@H]1C(=O)N[C@@H](Cc1c[nH]c2ccccc12)C(=O)N[C@@H](Cc1c[nH]c2ccccc12)C(=O)N1CCC[C@H]1C(=O)N[C@@H](Cc1c[nH]c2ccccc12)C(=O)N[C@@H](CCCNC(=N)N)C(=O)N[C@@H](CCCNC(=N)N)C(=O)N[C@@H](CCCCN)C(=O)O [CP-11D] (H-[dI]LKKWPWWPWRRK-OH)
E. coli UB1005
  MIC E. coli: 4 µg/mL (≈ 2.13 µM)
[1]
  MIC P. aeruginosa: 4 µg/mL (≈ 2.13 µM)
[2]
  MIC S. aureus: 4 µg/mL (≈ 2.13 µM)
[3]
  MIC S. epidermidis: 2 µg/mL (≈ 1.06 µM)
Candida albicans C627
  MIC C. albicans: 8 µg/mL (≈ 4.25 µM)
[4]
  Mortality after injection of peptide: did not cause mortality

## [Mg+2] [Mg^2+ ions, Mg^2+]
[5]
  IC50: ~620 µM

## CC[C@H](C)[C@H](N)C(=O)N[C@@H](CC(C)C)C(=O)N1CCC[C@H]1C(=O)N[C@@H](Cc1c[nH]c2ccccc12)C(=O)N[C@@H](CCCCN)C(=O)N[C@@H](Cc1c[nH]c2ccccc12)C(=O)N1CCC[C@H]1C(=O)N[C@@H](Cc1c[nH]c2ccccc12)C(=O)N[C@@H](Cc1c[nH]c2ccccc12)C(=O)N1CCC[C@H]1C(=O)N[C@@H](Cc1c[nH]c2ccccc12)C(=O)N[C@@H](CCCNC(=N)N)C(=O)N[C@@H](CCCNC(=N)N)C(=O)OC [Indolicidin-C]
E. coli UB1005
  MIC E. coli: 4 µg/mL (≈ 2.08 µM)
[1]
  MIC P. aeruginosa: >32 µg/mL
[2]
  MIC S. aureus: 4 µg/mL (≈ 2.08 µM)
[3]
  MIC S. epidermidis: 1 µg/mL (≈ 0.52 µM)
Candida albicans C627
  MIC C. albicans: >32 µg/mL
Human red blood cells; lysis of more than 80% of cells (visible lysis), 37° C., 4 hours
  Lowest concentration causing lysis, 4 hours: 32 µg/mL
Human red blood cells; lysis of more than 80% of cells (visible lysis), 37° C., 24 hours
  Lowest concentration causing lysis, 24 hours: 32 µg/mL

## CC[C@@H](C)[C@@H](N)C(=O)N[C@@H](CC(C)C)C(=O)N1CCC[C@H]1C(=O)N[C@@H](Cc1c[nH]c2ccccc12)C(=O)N[C@@H](CCCCN)C(=O)N[C@@H](Cc1c[nH]c2ccccc12)C(=O)N1CCC[C@H]1C(=O)N[C@@H](Cc1c[nH]c2ccccc12)C(=O)N[C@@H](Cc1c[nH]c2ccccc12)C(=O)N1CCC[C@H]1C(=O)N[C@@H](Cc1c[nH]c2ccccc12)C(=O)N[C@@H](CCCNC(=N)N)C(=O)N[C@@H](CCCNC(=N)N)C(=O)O [Indolicidin-D]
E. coli UB1005
  MIC E. coli: 8 µg/mL (≈ 4.19 µM)
[1]
  MIC P. aeruginosa: >32 µg/mL
[2]
  MIC S. aureus: 4 µg/mL (≈ 2.1 µM)
[3]
  MIC S. epidermidis: 2 µg/mL (≈ 1.05 µM)
Candida albicans C627
  MIC C. albicans: >32 µg/mL
[4]
  Mortality after injection of peptide: did not cause mortality

## ILKKWPWWPWKWKK [CP-13]
E. coli UB1005
  MIC E. coli: 8 µg/mL
[1]
  MIC P. aeruginosa: >32 µg/mL
[2]
  MIC S. aureus: >32 µg/mL
[3]
  MIC S. epidermidis: 4 µg/mL
Candida albicans C627
  MIC C. albicans: >32 µg/mL
Human red blood cells
  Lowest concentration causing lysis, 4 hours: >128 µg/mL
  Lowest concentration causing lysis, 24 hours: 128 µg/mL

## CC[C@H](C)[C@H](N)C(=O)N[C@@H](CC(C)C)C(=O)N[C@@H](CCCCN)C(=O)N[C@@H](CCCCN)C(=O)N[C@@H](Cc1c[nH]c2ccccc12)C(=O)N1CCC[C@H]1C(=O)N[C@@H](Cc1c[nH]c2ccccc12)C(=O)N[C@@H](Cc1c[nH]c2ccccc12)C(=O)N1CCC[C@H]1C(=O)N[C@@H](Cc1c[nH]c2ccccc12)C(=O)N[C@@H](CCCNC(=N)N)C(=O)N[C@@H](CCCNC(=N)N)C(=O)N[C@@H](CCCCN)C(=O)OC [CP-11C] (H-ILKKWPWWPWRRK-OMe)
E. coli UB1005
  MIC E. coli: 2 µg/mL (≈ 1.06 µM)
[1]
  MIC P. aeruginosa: 8 µg/mL (≈ 4.22 µM)
[2]
  MIC S. aureus: 8 µg/mL (≈ 4.22 µM)
[3]
  MIC S. epidermidis: 1 µg/mL (≈ 0.528 µM)
Candida albicans C627
  MIC C. albicans: 8 µg/mL (≈ 4.22 µM)
[6]
  MIC values for all of the organisms tested: 1 to 8 µg/mL
Human red blood cells
  Lowest concentration causing lysis, 4 hours: >128 µg/mL
  Lowest concentration causing lysis, 24 hours: 64 µg/mL

## ILKKWPWWPWRRK [CP-11]
E. coli UB1005
  MIC E. coli: 4 µg/mL
[1]
  MIC P. aeruginosa: 16 µg/mL
[2]
  MIC S. aureus: 16 µg/mL
[3]
  MIC S. epidermidis: 2 µg/mL
Candida albicans C627
  MIC C. albicans: 8 µg/mL
Human red blood cells
  Lowest concentration causing lysis, 4 hours: >128 µg/mL
  Lowest concentration causing lysis, 24 hours: >128 µg/mL
[4]
  Mortality after injection of peptide: did not cause mortality
T-lymphocytes
  Toxicity to T-lymphocytes compared with indolicidin: less toxic than indolicidin
